System: fibroblast (human, dermal)
Test: fibroblast contraction (human, dermal)
Type: cell-based
Settings: human dermal fibroblasts; even at low doses
Excerpt: Cortisone prevents fibroblast contraction (human, dermal) even at low doses (below 10^−6 M)

C[C@]12CCC(=O)C=C1CC[C@@H]1[C@@H]2C(=O)C[C@@]2(C)[C@H]1CC[C@]2(O)C(=O)CO [Cortisone, cortisone]
dose preventing fibroblast contraction: below 10^−6 M
